1 compound from ChEMBL document CHEMBL3739410, “The natural product brartemicin is a high affinity ligand for the carbohydrate-recognition domain of the macrophage receptor mincle” (Medchemcomm, 2015) can be followed below.

For this experiment, the species on record is Bos taurus. The experiment is described as follows: Displacement of radioiodinated Man31-bovine serum albumin from biotin-tagged bovine mincle CRD after 2 hr by scintillation counting analysis relative to alpha,alpha-trehalose.

In the case of `Cc1cc(O)cc(O)c1C(=O)OC[C@H]1O[C@H](O[C@H]2O[C@H](COC(=O)c3c(C)cc(O)cc3O)[C@@H](O)[C@H](O)[C@H]2O)[C@H](O)[C@@H](O)[C@@H]1O`, the Ratio Ki was 290.
